Laboratory results published in ChEMBL document CHEMBL1201862, “PubChem BioAssay data set” (2004).
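Five compound concentrations were applied to cells in 96-well plates for 48 hours; endpoints were derived by simple linear interpolation of the resulting dose-response curve. The concentration for 50% growth inhibition is given as GI50.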 Calls of active or inactive are those of the source. Rule as the data show it: active = GI50 up to about 1.1 µM and inactive = higher.

Columns and labels:
Assay in all cases: NCI-60 cell line screen, 48 h
[1] = system: HT-29
[2] = system: 786-0
[3] = system: SW-620
[4] = system: Hs-578T
[5] = system: XF498
[6] = system: CCRF-CEM
[7] = system: NCI-H522
[8] = system: MDA-MB-231
[9] = system: M19-MEL
[10] = system: HL-60
[11] = system: SF-295
[12] = system: MCF7
[13] = system: MOLT-4
[14] = system: RXF 393
[15] = system: UO-31
[16] = system: SK-MEL-28
[17] = system: OVCAR-8
[18] = system: T47D
[19] = system: NCI/ADR-RES
[20] = system: HCT-15
[21] = system: HOP-18
[22] = system: A498
[23] = system: DMS-114
[24] = system: SK-OV-3
[25] = system: LXFL 529
[26] = system: TK-10
[27] = system: UACC-62
[28] = system: SNB-19
[29] = system: SN12C
[30] = system: ACHN
[31] = system: HOP-92
[32] = system: IGROV-1
[33] = system: PC-3
[34] = system: SK-MEL-2
[35] = system: NCI-H226
[36] = system: HCT-116
[37] = system: SF-268
[38] = system: OVCAR-4
[39] = system: LOX IMVI
[40] = system: OVCAR-3
[41] = system: KM-20L2
[42] = system: DMS-273
[43] = system: M14
[44] = system: K562
[45] = system: NCI-H23
[46] = system: SNB-78
[47] = system: OVCAR-5
[48] = system: SR
[49] = system: SNB-75
[50] = system: BT-549
[51] = system: A549
[52] = system: DLD-1
[53] = system: U-251
[54] = system: SK-MEL-5
[55] = system: Malme-3M
[56] = system: UACC-257
[57] = system: EKVX
[58] = system: DU-145
[59] = system: HOP-62
[60] = system: MDA-MB-435
[61] = system: HCC 2998
[62] = system: SF-539
[63] = system: CAKI-1
[64] = system: MDA-N
[65] = system: NCI-H460
[66] = system: COLO 205
[67] = system: RPMI-8226
[68] = system: KM12
[69] = system: RXF 631

Compound: O=S(=O)(O)c1cc(/N=N/c2cc(S(=O)(=O)O)c3ccccc3c2O)ccc1/C=C/c1ccc(/N=N/c2cc(S(=O)(=O)O)c3ccccc3c2O)cc1S(=O)(=O)O
- GI50 [1]: > 457 µM (inactive)
- GI50 [2]: > 684 µM (inactive)
- GI50 [3]: > 605 µM (inactive)
- GI50 [4]: 499 µM (inactive)
- GI50 [5]: > 100 µM (inactive)
- GI50 [6]: 20.6 µM (inactive)
- GI50 [7]: > 492 µM (inactive)
- GI50 [8]: 27.3 µM (inactive)
- GI50 [9]: > 100 µM (inactive)
- GI50 [10]: 18.2 µM (inactive)
- GI50 [11]: > 462 µM (inactive)
- GI50 [12]: 310 µM (inactive)
- GI50 [13]: 22.8 µM (inactive)
- GI50 [14]: > 771 µM (inactive)
- GI50 [15]: > 367 µM (inactive)
- GI50 [16]: 594 µM (inactive)
- GI50 [17]: > 755 µM (inactive)
- GI50 [18]: 497 µM (inactive)
- GI50 [19]: 427 µM (inactive)
- GI50 [20]: 98.6 µM
- GI50 [21]: > 100 µM (inactive)
- GI50 [22]: > 100 µM (inactive)
- GI50 [23]: > 100 µM (inactive)
- GI50 [24]: > 630 µM (inactive)
- GI50 [25]: > 1000 µM (inactive)
- GI50 [26]: 24.9 µM (inactive)
- GI50 [27]: > 312 µM (inactive)
- GI50 [28]: > 733 µM (inactive)
- GI50 [29]: > 743 µM (inactive)
- GI50 [30]: > 483 µM (inactive)
- GI50 [31]: > 80.9 µM (inactive)
- GI50 [32]: > 399 µM (inactive)
- GI50 [33]: 150 µM (inactive)
- GI50 [34]: > 371 µM (inactive)
- GI50 [35]: 270 µM (inactive)
- GI50 [36]: > 213 µM (inactive)
- GI50 [37]: > 800 µM (inactive)
- GI50 [38]: > 86.5 µM (inactive)
- GI50 [39]: > 305 µM (inactive)
- GI50 [40]: > 553 µM (inactive)
- GI50 [41]: > 100 µM (inactive)
- GI50 [42]: > 83 µM (inactive)
- GI50 [43]: 131 µM (inactive)
- GI50 [44]: 30.1 µM (inactive)
- GI50 [45]: > 537 µM (inactive)
- GI50 [46]: > 100 µM (inactive)
- GI50 [47]: 146 µM (inactive)
- GI50 [48]: 27 µM (inactive)
- GI50 [49]: > 458 µM (inactive)
- GI50 [50]: 284 µM (inactive)
- GI50 [51]: > 480 µM (inactive)
- GI50 [52]: > 100 µM (inactive)
- GI50 [53]: > 716 µM (inactive)
- GI50 [54]: 86.7 µM (inactive)
- GI50 [55]: > 333 µM (inactive)
- GI50 [56]: > 291 µM (inactive)
- GI50 [57]: > 399 µM (inactive)
- GI50 [58]: 303 µM (inactive)
- GI50 [59]: > 668 µM (inactive)
- GI50 [60]: 111 µM (inactive)
- GI50 [61]: > 100 µM (inactive)
- GI50 [62]: > 386 µM (inactive)
- GI50 [63]: > 574 µM (inactive)
- GI50 [64]: 151 µM (inactive)
- GI50 [65]: > 437 µM (inactive)

Compound: O=C(O)c1ccc(O)c(/N=N/c2cc(S(=O)(=O)O)c3ccccc3c2O)c1
- GI50 [1]: 50.7 µM (inactive)
- GI50 [2]: > 100 µM (inactive)
- GI50 [3]: > 100 µM (inactive)
- GI50 [9]: 55.6 µM (inactive)
- GI50 [10]: > 100 µM (inactive)
- GI50 [11]: > 10 µM (inactive)
- GI50 [13]: > 100 µM (inactive)
- GI50 [14]: > 100 µM (inactive)
- GI50 [15]: > 100 µM (inactive)
- GI50 [16]: > 100 µM (inactive)
- GI50 [66]: 39.8 µM (inactive)
- GI50 [17]: > 100 µM (inactive)
- GI50 [67]: > 100 µM (inactive)
- GI50 [68]: > 100 µM (inactive)
- GI50 [20]: > 10 µM
- GI50 [22]: > 100 µM (inactive)
- GI50 [23]: 82.6 µM (inactive)
- GI50 [24]: > 10 µM (inactive)
- GI50 [26]: > 100 µM (inactive)
- GI50 [28]: > 100 µM (inactive)
- GI50 [29]: > 100 µM (inactive)
- GI50 [30]: > 100 µM (inactive)
- GI50 [31]: > 100 µM (inactive)
- GI50 [32]: 45.1 µM (inactive)
- GI50 [34]: > 10 µM (inactive)
- GI50 [35]: > 100 µM (inactive)
- GI50 [36]: 20 µM (inactive)
- GI50 [37]: > 10 µM (inactive)
- GI50 [38]: > 100 µM (inactive)
- GI50 [39]: > 100 µM (inactive)
- GI50 [40]: 92.3 µM (inactive)
- GI50 [41]: > 100 µM (inactive)
- GI50 [42]: > 100 µM (inactive)
- GI50 [44]: > 100 µM (inactive)
- GI50 [45]: > 100 µM (inactive)
- GI50 [46]: > 100 µM (inactive)
- GI50 [47]: > 100 µM (inactive)
- GI50 [48]: > 100 µM (inactive)
- GI50 [49]: > 100 µM (inactive)
- GI50 [51]: > 100 µM (inactive)
- GI50 [69]: > 100 µM (inactive)
- GI50 [52]: > 100 µM (inactive)
- GI50 [53]: > 100 µM (inactive)
- GI50 [54]: > 100 µM (inactive)
- GI50 [55]: > 100 µM (inactive)
- GI50 [56]: > 10 µM (inactive)
- GI50 [57]: 23.3 µM (inactive)
- GI50 [59]: 19.6 µM (inactive)
- GI50 [61]: > 100 µM (inactive)
- GI50 [62]: > 10 µM (inactive)
- GI50 [63]: 54.3 µM (inactive)
- GI50 [65]: 37.2 µM (inactive)
